From US8552002B2 (Novartis AG, priority 2004, dated 2013)
pIC50: −log10 of the molar value.

Tests used:
JNK2α2 = target: T1, JNK2α2 (Homo sapiens, UniProt P45984); assay: Upstate KinaseProfiler radio-enzymatic filter binding assay; assay type: biochemical; conditions: read-out: percentage inhibition of JNK2α2
T1 construct: purchased Upstate (KinaseProfiler panel)
Method: (§1) Compounds of the invention are assessed for their ability to inhibit individual members of a panel of kinases (a partial, non-limiting list of kinases includes: Abl, BCR-Abl, BMX, FGFR35, Lck, JNK1, JNK2, CSK, RAF, MKK6 and P38). The compounds are tested in duplicates at a final concentration of 10 μM following this generic protocol. Note that the kinase buffer composition and the substrates vary for the different kinases included in the “Upstate KinaseProfiler™” panel. Kinase buffer (2.5 μL, 10×—containing MnCl2 when required), active kinase (0.001-0.01 Units; 2.5 μL), specific or Poly(Glu4-Tyr) peptide (5-500 μM or 0.01 mg/ml) in kinase buffer and kinase buffer (50 μM; 5 μL) are mixed in an eppendorf on ice. A Mg/ATP mix (10 μL; 67.5 (or 33.75) mM MgCl2, 450 (or 225) μM ATP and 1 μCi/μl [γ-^32P]-ATP (3000 Ci/mmol)) is added and the reaction is incubated at about 30° C. for about 10 minutes. The reaction mixture is spotted (20 μL) onto a 2 cm×2 cm P81 (phosphocellulose, for positively charged peptide substrates) or Whatman No. 1 (for Poly (Glu4-Tyr) peptide substrate) paper square. The assay squares are washed 4 times, for 5 minutes each, with 0.75% phosphoric acid and washed once with acetone for 5 minutes. The assay squares are transferred to a scintillation vial, 5 ml scintillation cocktail are added and ^32P incorporation (cpm) to the peptide substrate is quantified with a Beckman scintillation counter. Percentage inhibition is calculated for each reaction.

TrkB = target: T2, TrkB (Homo sapiens, UniProt Q16620); assay: as above; assay type: biochemical; conditions: read-out: percentage inhibition of TrkB
T2 construct: purchased Upstate (KinaseProfiler panel)
Method: as §1

MKK6 = target: T3, MKK6 (Homo sapiens, UniProt P52564); assay: as above; assay type: biochemical; conditions: read-out: percentage inhibition of MKK6
T3 construct: purchased Upstate (KinaseProfiler panel)
T3 sequence (P52564 whole entry, species assumed): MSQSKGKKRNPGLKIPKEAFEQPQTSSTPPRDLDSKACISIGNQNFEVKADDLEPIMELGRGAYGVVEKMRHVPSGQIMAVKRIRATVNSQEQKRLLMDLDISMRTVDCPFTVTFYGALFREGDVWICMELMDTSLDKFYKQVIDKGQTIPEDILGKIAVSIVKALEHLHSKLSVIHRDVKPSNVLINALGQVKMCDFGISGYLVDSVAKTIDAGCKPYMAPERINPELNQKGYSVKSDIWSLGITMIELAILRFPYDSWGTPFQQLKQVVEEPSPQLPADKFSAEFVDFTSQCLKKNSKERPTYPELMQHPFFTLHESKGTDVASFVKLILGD
Method: as §1

c-RAF = target: T4, c-RAF (Homo sapiens, UniProt P04049); assay: as above; assay type: biochemical; conditions: read-out: percentage inhibition of c-RAF
T4 construct: purchased Upstate (KinaseProfiler panel)
Method: as §1

ROS = target: T5, ROS (Homo sapiens, UniProt P08922); assay: as above; assay type: biochemical; conditions: read-out: percentage inhibition of ROS
T5 construct: purchased Upstate (KinaseProfiler panel)
Method: as §1

SAPK2α = target: T6, SAPK2α (Homo sapiens, UniProt Q16539); assay: as above; assay type: biochemical; conditions: read-out: percentage inhibition of SAPK2α
T6 construct: purchased Upstate (KinaseProfiler panel)
T6 sequence (Q16539 whole entry): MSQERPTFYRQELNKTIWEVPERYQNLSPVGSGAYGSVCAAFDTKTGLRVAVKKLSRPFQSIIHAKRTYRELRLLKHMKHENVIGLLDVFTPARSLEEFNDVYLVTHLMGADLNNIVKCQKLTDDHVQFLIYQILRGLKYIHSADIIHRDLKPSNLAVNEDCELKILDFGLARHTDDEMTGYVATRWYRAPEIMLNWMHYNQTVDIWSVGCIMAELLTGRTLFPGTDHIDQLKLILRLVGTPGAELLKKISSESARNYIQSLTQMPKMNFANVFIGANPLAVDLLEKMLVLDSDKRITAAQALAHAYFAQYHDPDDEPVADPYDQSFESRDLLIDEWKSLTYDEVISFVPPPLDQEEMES
Method: as §1

Tie2 = target: T7, Tie2 (Homo sapiens, UniProt Q02763); assay: as above; assay type: biochemical; conditions: read-out: percentage inhibition of Tie2
T7 construct: purchased Upstate (KinaseProfiler panel)
T7 sequence (Q02763 23-1124): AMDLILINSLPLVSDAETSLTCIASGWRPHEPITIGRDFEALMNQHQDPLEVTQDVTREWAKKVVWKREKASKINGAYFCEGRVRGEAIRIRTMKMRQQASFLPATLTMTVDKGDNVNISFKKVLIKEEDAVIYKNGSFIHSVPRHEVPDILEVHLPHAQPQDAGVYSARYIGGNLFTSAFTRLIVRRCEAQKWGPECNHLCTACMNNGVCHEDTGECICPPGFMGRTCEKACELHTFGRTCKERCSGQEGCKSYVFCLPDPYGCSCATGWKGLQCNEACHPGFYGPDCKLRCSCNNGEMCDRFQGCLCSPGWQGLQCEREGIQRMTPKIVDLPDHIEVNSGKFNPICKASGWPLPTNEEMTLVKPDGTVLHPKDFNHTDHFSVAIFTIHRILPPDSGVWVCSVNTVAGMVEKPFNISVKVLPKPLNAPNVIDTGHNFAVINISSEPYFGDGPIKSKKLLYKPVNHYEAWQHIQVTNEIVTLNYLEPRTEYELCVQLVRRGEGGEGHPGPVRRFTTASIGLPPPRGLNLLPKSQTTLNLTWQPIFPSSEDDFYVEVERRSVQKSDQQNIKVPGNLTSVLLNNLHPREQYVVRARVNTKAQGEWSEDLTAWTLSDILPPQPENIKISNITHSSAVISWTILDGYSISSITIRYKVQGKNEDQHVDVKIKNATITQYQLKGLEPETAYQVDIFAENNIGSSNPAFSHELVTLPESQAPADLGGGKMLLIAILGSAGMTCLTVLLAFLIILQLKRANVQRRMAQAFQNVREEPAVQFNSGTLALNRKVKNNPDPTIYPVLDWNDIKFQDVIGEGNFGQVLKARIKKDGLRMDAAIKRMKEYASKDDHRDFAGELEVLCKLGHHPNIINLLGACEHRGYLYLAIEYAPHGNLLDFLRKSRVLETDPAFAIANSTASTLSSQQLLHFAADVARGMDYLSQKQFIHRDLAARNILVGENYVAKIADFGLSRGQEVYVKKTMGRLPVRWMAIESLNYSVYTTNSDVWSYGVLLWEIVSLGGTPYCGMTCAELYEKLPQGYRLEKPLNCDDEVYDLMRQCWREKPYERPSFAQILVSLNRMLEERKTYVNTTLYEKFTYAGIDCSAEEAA
Method: as §1

p70S6K = target: T8, p70S6K (Homo sapiens, UniProt P23443); assay: as above; assay type: biochemical; conditions: read-out: percentage inhibition of p70S6K
T8 construct: purchased Upstate (KinaseProfiler panel)
T8 sequence (P23443 whole entry): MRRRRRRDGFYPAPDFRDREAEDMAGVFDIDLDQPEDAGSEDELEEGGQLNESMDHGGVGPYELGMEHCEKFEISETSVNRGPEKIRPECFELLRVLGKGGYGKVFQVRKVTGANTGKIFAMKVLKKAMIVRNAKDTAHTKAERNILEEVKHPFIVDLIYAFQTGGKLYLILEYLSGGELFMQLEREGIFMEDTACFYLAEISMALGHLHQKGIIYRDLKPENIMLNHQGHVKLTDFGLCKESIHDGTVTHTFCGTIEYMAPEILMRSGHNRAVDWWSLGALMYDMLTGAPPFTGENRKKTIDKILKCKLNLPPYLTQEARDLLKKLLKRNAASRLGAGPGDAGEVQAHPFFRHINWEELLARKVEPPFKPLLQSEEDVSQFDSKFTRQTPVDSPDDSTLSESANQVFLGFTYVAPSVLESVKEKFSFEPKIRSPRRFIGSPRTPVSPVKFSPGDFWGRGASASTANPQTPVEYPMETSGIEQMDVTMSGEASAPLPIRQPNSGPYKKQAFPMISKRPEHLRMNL
Method: as §1

wild-type Abl = target: T9, wild-type Abl (Homo sapiens, UniProt P00519); assay: as above; assay type: biochemical; conditions: read-out: percentage inhibition of wild-type Abl
T9 construct: purchased Upstate (KinaseProfiler panel)
T9 sequence (P00519 whole entry, species assumed): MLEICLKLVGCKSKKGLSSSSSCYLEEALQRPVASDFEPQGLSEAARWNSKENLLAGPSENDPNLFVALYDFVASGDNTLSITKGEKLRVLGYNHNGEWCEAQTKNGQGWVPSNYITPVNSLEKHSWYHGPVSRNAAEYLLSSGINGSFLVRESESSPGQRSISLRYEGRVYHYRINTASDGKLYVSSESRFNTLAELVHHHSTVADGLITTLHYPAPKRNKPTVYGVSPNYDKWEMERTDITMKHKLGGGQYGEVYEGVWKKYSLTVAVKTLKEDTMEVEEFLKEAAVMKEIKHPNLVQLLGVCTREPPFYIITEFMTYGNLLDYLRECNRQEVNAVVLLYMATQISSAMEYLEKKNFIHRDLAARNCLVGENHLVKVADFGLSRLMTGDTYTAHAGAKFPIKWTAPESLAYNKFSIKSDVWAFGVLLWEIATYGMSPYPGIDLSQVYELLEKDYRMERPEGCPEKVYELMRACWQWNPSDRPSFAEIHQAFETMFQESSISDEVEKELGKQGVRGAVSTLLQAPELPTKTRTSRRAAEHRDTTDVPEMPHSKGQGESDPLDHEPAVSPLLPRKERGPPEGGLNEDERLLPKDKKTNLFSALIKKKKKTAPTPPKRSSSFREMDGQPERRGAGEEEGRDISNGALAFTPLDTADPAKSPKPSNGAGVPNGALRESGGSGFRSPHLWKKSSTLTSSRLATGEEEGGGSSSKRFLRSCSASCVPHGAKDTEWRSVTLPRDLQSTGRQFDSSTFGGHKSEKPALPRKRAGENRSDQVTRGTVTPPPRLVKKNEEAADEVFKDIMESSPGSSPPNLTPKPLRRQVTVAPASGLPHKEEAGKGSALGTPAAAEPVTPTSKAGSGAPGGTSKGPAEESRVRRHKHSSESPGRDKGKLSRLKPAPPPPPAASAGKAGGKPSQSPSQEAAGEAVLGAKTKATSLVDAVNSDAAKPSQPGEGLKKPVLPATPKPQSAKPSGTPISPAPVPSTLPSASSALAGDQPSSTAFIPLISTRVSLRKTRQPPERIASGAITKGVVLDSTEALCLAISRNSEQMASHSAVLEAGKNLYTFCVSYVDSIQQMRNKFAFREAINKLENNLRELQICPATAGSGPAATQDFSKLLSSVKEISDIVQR
Method: as §1

FGFR35 [1] = target: T10, FGFR35 (Homo sapiens, UniProt P22607); assay: FGFR35 (enzymatic assay), HTRF; assay type: biochemical; parameters: purchased Upstate; conditions: purified FGFR35, 3 μM ATP; read-out: IC50 for the FGFR35 enzyme assay
Method: Kinase activity assay with purified FGFR35 (Upstate) is carried out in a final volume of 10 μL containing 0.25 μg/mL of enzyme in kinase buffer (30 mM Tris-HCl pH7.5, 15 mM MgCl2, 4.5 mM MnCl2, 15 μM Na3VO4 and 50 μg/mL BSA), and substrates (5 μg/mL biotin-poly-EY(Glu, Tyr) (CIS-US, Inc.) and 3 μM ATP). Two solutions are made: the first solution of 5 μl contains the FGFR35 enzyme in kinase buffer was first dispensed into 384—format ProxiPlate® (Perkin-Elmer) followed by adding 50 nL of compounds dissolved in DMSO, then 5 μl of second solution contains the substrate (poly-EY) and ATP in kinase buffer was added to each wells. The reactions are incubated at room temperature for one hour, stopped by adding 10 μL of HTRF detection mixture, which contains 30 mM Tris-HCl pH7.5, 0.5 M KF, 50 mM ETDA, 0.2 mg/mL BSA, 15 μg/mL streptavidin-XL665 (CIS-US, Inc.) and 150 ng/mL cryptate conjugated anti-phosphotyrosine antibody (CIS-US, Inc.). After one hour of room temperature incubation to allow for streptavidin-biotin interaction, time resolved florescent signals are read on Analyst GT (Molecular Devices Corp.). IC50 values are calculated by linear regression analysis of the percentage inhibition of each compound at 12 concentrations (1:3 dilution from 50 μM to 0.28 nM).
Target sequence in this assay (P22607 23-806): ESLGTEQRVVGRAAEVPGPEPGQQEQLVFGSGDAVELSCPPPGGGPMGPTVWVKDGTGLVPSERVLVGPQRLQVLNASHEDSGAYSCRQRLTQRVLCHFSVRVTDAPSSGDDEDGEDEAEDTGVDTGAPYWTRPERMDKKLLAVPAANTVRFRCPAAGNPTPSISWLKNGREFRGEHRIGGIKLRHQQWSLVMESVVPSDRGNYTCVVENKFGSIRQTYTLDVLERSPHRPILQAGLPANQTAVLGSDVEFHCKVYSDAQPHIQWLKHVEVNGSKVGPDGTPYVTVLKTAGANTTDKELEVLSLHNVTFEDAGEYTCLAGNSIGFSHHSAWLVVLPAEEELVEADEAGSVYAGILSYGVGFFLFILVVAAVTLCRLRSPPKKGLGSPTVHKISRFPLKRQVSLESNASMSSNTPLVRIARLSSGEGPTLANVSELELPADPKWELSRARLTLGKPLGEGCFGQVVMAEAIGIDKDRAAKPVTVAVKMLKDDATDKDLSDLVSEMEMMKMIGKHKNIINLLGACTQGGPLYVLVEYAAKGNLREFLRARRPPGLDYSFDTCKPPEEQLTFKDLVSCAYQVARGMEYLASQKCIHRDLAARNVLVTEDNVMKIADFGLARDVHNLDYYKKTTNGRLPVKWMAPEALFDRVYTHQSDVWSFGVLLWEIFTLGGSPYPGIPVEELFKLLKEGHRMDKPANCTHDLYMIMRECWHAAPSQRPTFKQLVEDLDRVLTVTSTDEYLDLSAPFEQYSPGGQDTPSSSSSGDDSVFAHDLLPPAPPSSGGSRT

FGFR35 [2] = target: T10, FGFR35; assay: FGFR35 (cellular assay), proliferation of Ba/F3-TEL-FGFR35 cells; assay type: cell-based; parameters: fused on or other part: N-terminal part of TEL (ETV6), which acts as the oligomerising partner; it is fused to the part of FGFR3 that carries the kinase; P41212 (Transcription factor ETV6); conditions: 48 hours, read-out: IC50 for the FGFR35 cellular assay
Method: Compounds of the invention are tested for their ability to inhibit transformed Ba/F3-TEL-FGFR35 cells proliferation, which is depended on FGFR35 cellular kinase activity. Ba/F3-TEL-FGFR35 are cultured up to 800,000 cells/mL in suspension, with RPMI 1640 supplemented with 10% fetal bovine serum as the culture medium. Cells are dispensed into 384-well format plate at 5000 cell/well in 50 μL culture medium. Compounds of the invention are dissolved and diluted in dimethylsulfoxide (DMSO). Twelve points 1:3 serial dilutions are made into DMSO to create concentrations gradient ranging typically from 10 mM to 0.05 μM. Cells are added with 50 nL of diluted compounds and incubated for 48 hours in cell culture incubator. AlamarBlue® (TREK Diagnostic Systems), which can be used to monitor the reducing environment created by proliferating cells, are added to cells at final concentration of 10%. After additional four hours of incubation in a 37° C. cell culture incubator, fluorescence signals from reduced AlamarBlue® (Excitation at 530 nm, Emission at 580 nm) are quantified on Analyst GT (Molecular Devices Corp.). IC50 values are calculated by linear regression analysis of the percentage inhibition of each compound at 12 concentrations.
Target sequence in this assay (P22607 472-761 limits assumed, stated change not applied): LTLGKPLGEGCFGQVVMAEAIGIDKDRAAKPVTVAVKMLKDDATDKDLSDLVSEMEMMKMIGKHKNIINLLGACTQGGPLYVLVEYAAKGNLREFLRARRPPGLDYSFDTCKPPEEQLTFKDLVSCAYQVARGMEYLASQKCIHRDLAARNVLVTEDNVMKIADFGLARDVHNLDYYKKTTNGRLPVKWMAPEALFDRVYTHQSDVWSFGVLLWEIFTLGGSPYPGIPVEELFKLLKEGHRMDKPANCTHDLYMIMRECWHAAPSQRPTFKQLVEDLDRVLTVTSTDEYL

FGFR35 [3] = target: T10, FGFR35; assay: Upstate KinaseProfiler radio-enzymatic filter binding assay; assay type: biochemical; parameters: purchased Upstate; conditions: read-out: percentage inhibition of FGFR35
Method: Compounds of the invention are assessed for their ability to inhibit individual members of a panel of kinases (a partial, non-limiting list of kinases includes: Abl, BCR-Abl, BMX, FGFR35, Lck, JNK1, JNK2, CSK, RAF, MKK6 and P38). The compounds are tested in duplicates at a final concentration of 10 μM following this generic protocol. Note that the kinase buffer composition and the substrates vary for the different kinases included in the “Upstate KinaseProfiler™” panel. Kinase buffer (2.5 μL, 10×—containing MnCl2 when required), active kinase (0.001-0.01 Units; 2.5 μL), specific or Poly(Glu4-Tyr) peptide (5-500 μM or 0.01 mg/ml) in kinase buffer and […] are mixed in an eppendorf on ice. A Mg/ATP mix (10 μL; 67.5 (or 33.75) mM MgCl2, 450 (or 225) μM ATP and 1 μCi/μl [γ-^32P]-ATP (3000 Ci/mmol)) is added and the reaction is incubated at about 30° C. for about 10 minutes. […] The assay squares are transferred to a scintillation vial, 5 ml scintillation cocktail are added and ^32P incorporation (cpm) to the peptide substrate is quantified with a Beckman scintillation counter. Percentage inhibition is calculated for each reaction.
Target sequence in this assay (P22607 23-806): as the sequence (P22607 23-806) above

T1 sequence (P45984 whole entry): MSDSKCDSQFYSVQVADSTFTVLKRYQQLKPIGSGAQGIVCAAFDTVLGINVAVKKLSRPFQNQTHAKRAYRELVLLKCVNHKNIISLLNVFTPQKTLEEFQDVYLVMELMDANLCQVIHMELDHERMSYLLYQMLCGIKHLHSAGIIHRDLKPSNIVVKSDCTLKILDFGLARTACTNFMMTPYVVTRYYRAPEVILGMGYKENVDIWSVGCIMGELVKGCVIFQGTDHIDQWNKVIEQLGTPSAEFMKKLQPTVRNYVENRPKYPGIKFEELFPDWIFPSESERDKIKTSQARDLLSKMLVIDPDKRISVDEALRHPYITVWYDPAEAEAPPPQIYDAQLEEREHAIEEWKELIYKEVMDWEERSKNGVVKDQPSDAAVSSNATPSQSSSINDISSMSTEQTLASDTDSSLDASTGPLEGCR

inhibition at 10 µM (JNK2α2): 93%
inhibition at 10 µM (TrkB): 99%
inhibition at 10 µM (MKK6): 88%
inhibition at 10 µM (c-RAF): 99%
inhibition at 10 µM (ROS): 95%
inhibition at 10 µM (SAPK2α): 99%
inhibition at 10 µM (Tie2): 100%
inhibition at 10 µM (p70S6K): 81%
inhibition at 10 µM (wild-type Abl): 99%
pIC50 (FGFR35 [1]): 7.80
GI50 (FGFR35 [2]): 15 nM
inhibition at 10 µM (FGFR35 [3]): 99%
SMILES: Cc1ccc(NC(=O)c2cccc(C(F)(F)F)c2)cc1NC(=O)N(CCCN1CCCC1=O)c1cc(N)ncn1 [Example 215, N-(3-{3-(6-Amino-pyrimidin-4-yl)-3-[3-(2-oxo-pyrrolidin-1-yl)-propyl]-ureido}-4-methyl-phenyl)-3-trifluoromethyl-benzamide]
